Measured values from patent US6777408B1, “Pyrido-thieno-diazepines method for the production thereof and pharmaceutical compositions containing said pyrido-thieno-diazepines” (Societe de Conseils de Recherches et d'Applications …, priority 1999, dated 2004).

melting point	SMILES
90 to 95 °C	COc1ccc(NC(=S)N2CCc3c(sc4c3C(c3ccccc3Cl)=NC(OC(=O)CCCCCCN)C(=O)N4CCc3ccccc3)C2)c([N+](=O)[O-])c1 (stereo not drawn) [Example 8, 3-(7-amino-1-oxo-heptyloxy)-5-(2-chlorophenyl)-1,2,3,6,7,9-hexahydro-N-(4-methoxy-2-nitrophenyl)-2-oxo-1-(2-phenylethyl)-8H-pyrido[4′,3′:4,5]thieno[2,3-e]-1,4-diazepine-8-carbothioamide]
152 °C	COc1ccc(NC(=S)N2CCc3c(sc4c3C(c3ccccc3Cl)=NCC(=S)N4CCc3ccccc3)C2)c([N+](=O)[O-])c1
128 to 130 °C	O=C1CNC(c2ccccc2Cl)c2c(sc3c2CCNC3)N1CCc1ccccc1 (stereo not drawn) [Example 13, 5-(2-chlorophenyl)-1,3,4,5,6,7,8,9-octahydro-1-(2-phenylethyl)-2H-pyrido[4′,3′:4,5]thieno[2,3-e]-1,4-diazepine-2-one]
